The text below walks through data of ChEMBL document CHEMBL1141582, “Multi-target-directed coumarin derivatives: hAChE and BACE1 inhibitors as potential anti-Alzheimer compounds” (Bioorg Med Chem Lett, 2008).

For orientation: IC50 means the concentration needed to halve the response being measured.

Molecules are shown by their SMILES.

For one test, the target named is Acetylcholinesterase (Homo sapiens, UniProt P22303). In words: Inhibition of human recombinant AChE by Ellman method. For orientation: Ellman's reagent forms a yellow product with free thiols.
In another test the target is Beta-secretase 1 (Homo sapiens, UniProt P56817). Kind of test: Inhibition of human recombinant BACE1 by spectrofluorimetric method.
Beta-secretase 1, sequence (P56817 whole entry): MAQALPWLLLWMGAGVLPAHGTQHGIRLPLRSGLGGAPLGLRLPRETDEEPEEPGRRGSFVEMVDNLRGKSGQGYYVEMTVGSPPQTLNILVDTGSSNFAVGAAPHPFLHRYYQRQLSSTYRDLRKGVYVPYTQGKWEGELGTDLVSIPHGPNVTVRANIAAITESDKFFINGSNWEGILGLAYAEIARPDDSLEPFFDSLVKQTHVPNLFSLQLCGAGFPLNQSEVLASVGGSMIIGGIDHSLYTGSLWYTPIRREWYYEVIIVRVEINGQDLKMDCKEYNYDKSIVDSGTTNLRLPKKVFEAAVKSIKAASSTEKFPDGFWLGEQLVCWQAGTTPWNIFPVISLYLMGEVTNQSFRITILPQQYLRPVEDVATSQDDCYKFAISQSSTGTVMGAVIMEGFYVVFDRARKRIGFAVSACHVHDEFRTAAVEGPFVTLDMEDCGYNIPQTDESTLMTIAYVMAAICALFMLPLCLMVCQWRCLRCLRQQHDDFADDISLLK

Acetylcholinesterase, sequence (P22303 whole entry): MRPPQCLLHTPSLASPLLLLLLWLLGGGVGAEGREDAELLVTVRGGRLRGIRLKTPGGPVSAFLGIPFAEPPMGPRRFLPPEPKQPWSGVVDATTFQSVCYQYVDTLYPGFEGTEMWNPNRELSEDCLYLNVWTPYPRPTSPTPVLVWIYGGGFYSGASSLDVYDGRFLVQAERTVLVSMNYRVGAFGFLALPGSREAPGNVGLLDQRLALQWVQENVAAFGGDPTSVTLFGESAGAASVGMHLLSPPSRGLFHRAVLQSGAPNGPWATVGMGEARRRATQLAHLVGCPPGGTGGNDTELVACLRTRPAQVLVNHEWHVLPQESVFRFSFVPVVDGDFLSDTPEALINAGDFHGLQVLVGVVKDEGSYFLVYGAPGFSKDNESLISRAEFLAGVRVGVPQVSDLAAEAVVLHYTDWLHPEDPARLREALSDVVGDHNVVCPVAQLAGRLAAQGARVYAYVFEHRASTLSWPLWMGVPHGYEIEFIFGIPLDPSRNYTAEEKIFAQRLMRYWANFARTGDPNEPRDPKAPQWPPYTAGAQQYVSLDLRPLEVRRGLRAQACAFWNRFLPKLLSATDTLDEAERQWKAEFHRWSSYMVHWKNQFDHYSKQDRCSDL

As to `CCN(Cc1ccccc1)Cc1ccc(-c2cc3cc(OCCNC(=O)/C=C/c4cc(F)cc(F)c4)ccc3oc2=O)cc1`, the 50% inhibitory concentration (IC50) on Acetylcholinesterase was 7160 nM; at Beta-secretase 1 it was 99 nM.

Consider `CCN(Cc1ccccc1)Cc1ccc(-c2cc3cc(OCCNC(=O)CCc4ccc(F)c(F)c4)ccc3oc2=O)cc1`, for which the concentration for half-maximal inhibition (IC50) at Acetylcholinesterase came to 2770 nM; on Beta-secretase 1, 116 nM.

As for `CCN(Cc1ccccc1)Cc1ccc(-c2cc3ccc(OCCNC(=O)Cc4cc(F)cc(F)c4)cc3oc2=O)cc1`, the IC50 was 181 nM on Acetylcholinesterase and 150 nM at Beta-secretase 1.

As to `CCN(Cc1ccccc1)Cc1ccc(-c2cc3ccc(OCCNC(=O)/C=C/c4ccc(Cl)c(Cl)c4)cc3oc2=O)cc1`, the IC50 at Acetylcholinesterase was 4230 nM; at Beta-secretase 1, 151 nM.

In the case of `CCN(Cc1ccccc1)Cc1ccc(-c2cc3ccc(OCCNC(=O)/C=C/c4cc(F)cc(F)c4)cc3oc2=O)cc1`, the IC50 was 4570 nM on Acetylcholinesterase and 121 nM on Beta-secretase 1.

In the case of `CCN(Cc1ccccc1)Cc1ccc(-c2cc3ccc(OCCNC(=O)CCc4ccc(F)c(F)c4)cc3oc2=O)cc1`, the IC50 on Acetylcholinesterase came out at 327 nM; on Beta-secretase 1, 114 nM.

For `CCN(Cc1ccccc1)Cc1ccc(-c2cc3cc(OCCNC(=O)Cc4cc(F)cc(F)c4)ccc3oc2=O)cc1`, the IC50 on Acetylcholinesterase stood at 551 nM; on Beta-secretase 1, 149 nM.

In the case of `CCN(Cc1ccccc1)Cc1ccc(-c2cc3cc(OCCNC(=O)/C=C/c4ccc(Cl)c(Cl)c4)ccc3oc2=O)cc1`, the IC50 at Acetylcholinesterase stood at 267000 nM; at Beta-secretase 1, 133 nM.
